# Values joined by “and” are separate entries in the source; they are usually repeats but may differ in a detail not shown here. Equal entries are not always repeated.
# Legend:
# [1] = Toxicity studies in rats (determination of NOAEL); type: in vivo; conditions: for Exposure multiple relative to human exposure at 10 mg BID: rats 5 mg/kg/day (NOAEL); for Exposure multiple of human exposure at 10 mg BID: rats 50 mg/kg/day for 6 months
# Description: In rats, a single 1000 mg/kg dose caused death. […] The highest dose tested in 28-day studies, 50 mg/kg/day, was associated with increased serum lipids, centrilobular hepatocellular hypertrophy, splenic extramedullary hematopoiesis, increased pigmented macrophages, and reticulocytosis, and increased kidney weights, with minimal renal tubular epithelial hyperplasia in males only. A 13-week study and a 6-month study gave similar findings except there was no renal tubular epithelial changes and increases in kidney weights were limited to the 3-month study; the NOAEL was 5 mg/kg/day, which produced exposure multiples of 1.2 and 2.8 (males and females) relative to human exposure at a dose of 10 mg BID.
# In rats but not mice, modest increases in kidney weights were reported at high dose (≧50 mg/kg) in the 10-day, 28-day and 3-month studies, but were without microscopic correlate except in the 28-day study, in which minimal renal tubular epithelial hypertrophy was reported in male rats. In the one year toxicology study in monkeys, minimal to moderate focal tubular epithelial degeneration and/or regeneration were observed. The potential clinical relevance of this finding was evaluated in two ways. First, two pathologists with expertise in human renal pathology (Helmut Rennke, M.D. and Stephen Bonsib, M.D.) independently reviewed all monkey kidney slides from the 1-year study in a blinded manner. Both reported the findings to be mild and focal, clinically unimportant, without dose relationship, and more likely related to aging, infection, or inflammation than to study drug. Secondly, renal function was monitored in clinical trials not only by measuring creatinine and BUN, but also by examining urine sediment and by calculating creatinine clearance. The urine sediment data are of limited value due to the preponderance of “dirty” urine specimens contaminated with epithelial cells and other external debris. Neither BUN nor creatinine was affected by lorcaserin. Creatinine clearance, which was calculated using both actual body weight and the preferred ideal body weight method, was also not affected by lorcaserin use of up to 2 years.
# [2] = Toxicity studies in mice (determination of NOAEL); type: in vivo, mouse
# Description: In the mouse, seizures occurred at single doses of 100 and 300 mg/kg lorcaserin, and death followed single doses of 1000 and 2000 mg/kg. In repeat dose studies in mice, mortality occurred at
# doses ≧200 mg/kg. A dose of 250 mg/kg/day produced exposure multiples of 25 and 27 times (males and females) the exposure achieved in humans at a dose of 10 mg BID. At this dose, decreased red blood cell mass, increased reticulocytosis, increased liver weight, centrilobular hepatocellular hypertrophy, increased extramedullary hematopoeisis, and thymic necrosis occurred. The NOAEL in mice was 50 mg/kg/day, which produced exposure multiples of 7.6 and 2.3 (males and females) times the exposure in humans at 10 mg BID.
# [3] = Adverse events in the renal impairment clinical study APD356-016; type: in vivo, human
# Excerpt: The incidence of adverse events was not related to severity of renal impairment. Events considered possibly or probably related to lorcaserin included 1 event each of abdominal pain (moderate group), diarrhea (moderate group), dyspepsia (mild group), stomach discomfort (mild group), and worsening renal impairment (moderate group). Two events of dizziness (1 in severe group, one in ESRD group) and 3 events of headache (2 normal, 1 moderate group) were considered possibly/probably related to study drug. A summary of the Treatment Emergent Adverse Events in the APD356-016 study by renal impairment groups and relationship to study drug are listed in Table 11.
smiles,measurement,setting,value
"C[C@H]1CNCCc2ccc(Cl)cc21 [Lorcaserin, (R)-8-chloro-1-methyl-2,3,4,5-tetrahydro-1H-3-benzazepine]",NOAEL,"[1]; both sexes, rat, in vivo, rats, 13-week and 6-month studies",5 mg/kg/day
same,Single dose that caused death,[1]; rats,1000 mg/kg
same,Exposure multiple relative to human exposure at 10 mg BID,[1]; females,2.8
same,Exposure multiple relative to human exposure at 10 mg BID,[1]; males,1.2
same,Exposure multiple of human exposure at 10 mg BID,[1]; females,34 times
same,Exposure multiple of human exposure at 10 mg BID,[1]; males,22 times
same,Doses with no mortality,"[1]; rats, 10-day repeat dose studies",≤ 150 mg/kg/day
same,Doses with modest increases in kidney weights,"[1]; rats, 10-day, 28-day and 3-month studies",≥ 50 mg/kg
same,NOAEL,"[2]; both sexes, mouse, in vivo, mice",50 mg/kg/day
same,Exposure multiple of human exposure at 10 mg BID,"[2]; mice 50 mg/kg/day (NOAEL), females",2.3 times
same,Exposure multiple of human exposure at 10 mg BID,"[2]; mice 50 mg/kg/day (NOAEL), males",7.6 times
same,Exposure multiple of human exposure at 10 mg BID,"[2]; mice 250 mg/kg/day, females",27 times
same,Exposure multiple of human exposure at 10 mg BID,"[2]; mice 250 mg/kg/day, males",25 times
same,Doses at which mortality occurred,"[2]; mice, repeat dose studies",≥ 200 mg/kg
same,Single doses followed by death,[2]; mouse,1000 mg/kg and 2000 mg/kg
same,Events of dizziness possibly/probably related,"[3]; 1 severe group, one ESRD group",Two
same,Events of headache possibly/probably related,"[3]; 2 normal, 1 moderate group",3
same,Number (%) of Subjects Reporting AEs,[3]; End Stage (N = 8),1 (12.5%)
same,Number (%) of Subjects Reporting AEs By Maximum Intensity: Mild,[3]; End Stage (N = 8),1 (12.5%)
same,Number (%) of Subjects Reporting AEs By Maximum Intensity: Moderate,[3]; End Stage (N = 8),0 (0.0%)
same,Number (%) of Subjects Reporting AEs By Maximum Intensity: Severe,[3]; End Stage (N = 8),0 (0.0%)
same,Number (%) of Subjects Reporting AEs By Most Direct Relationship to Study Treatment: Not Related,[3]; End Stage (N = 8),1 (12.5%)
same,Number (%) of Subjects Reporting AEs By Most Direct Relationship to Study Treatment: Possible,[3]; End Stage (N = 8),0 (0.0%)
same,Number (%) of Subjects Reporting AEs By Most Direct Relationship to Study Treatment: Probable,[3]; End Stage (N = 8),0 (0.0%)
same,Number (%) of Subjects Reporting AEs By Most Direct Relationship to Study Treatment: Unlikely,[3]; End Stage (N = 8),0 (0.0%)
same,Number of AEs Reported,[3]; End Stage (N = 8),1
same,Number (%) of Subjects Reporting AEs,[3]; Mild (N = 8),2 (25.0%)
same,Number (%) of Subjects Reporting AEs By Maximum Intensity: Mild,[3]; Mild (N = 8),2 (25.0%)
same,Number (%) of Subjects Reporting AEs By Maximum Intensity: Moderate,[3]; Mild (N = 8),0 (0.0%)
same,Number (%) of Subjects Reporting AEs By Maximum Intensity: Severe,[3]; Mild (N = 8),0 (0.0%)
same,Number (%) of Subjects Reporting AEs By Most Direct Relationship to Study Treatment: Not Related,[3]; Mild (N = 8),0 (0.0%)
same,Number (%) of Subjects Reporting AEs By Most Direct Relationship to Study Treatment: Possible,[3]; Mild (N = 8),1 (12.5%)
same,Number (%) of Subjects Reporting AEs By Most Direct Relationship to Study Treatment: Probable,[3]; Mild (N = 8),1 (12.5%)
same,Number (%) of Subjects Reporting AEs By Most Direct Relationship to Study Treatment: Unlikely,[3]; Mild (N = 8),0 (0.0%)
same,Number of AEs Reported,[3]; Mild (N = 8),3
same,Number (%) of Subjects Reporting AEs,[3]; Moderate (N = 8),5 (62.5%)
same,Number (%) of Subjects Reporting AEs By Maximum Intensity: Mild,[3]; Moderate (N = 8),4 (50.0%)
same,Number (%) of Subjects Reporting AEs By Maximum Intensity: Moderate,[3]; Moderate (N = 8),1 (12.5%)
same,Number (%) of Subjects Reporting AEs By Maximum Intensity: Severe,[3]; Moderate (N = 8),0 (0.0%)
same,Number (%) of Subjects Reporting AEs By Most Direct Relationship to Study Treatment: Not Related,[3]; Moderate (N = 8),1 (12.5%)
same,Number (%) of Subjects Reporting AEs By Most Direct Relationship to Study Treatment: Possible,[3]; Moderate (N = 8),3 (37.5%)
same,Number (%) of Subjects Reporting AEs By Most Direct Relationship to Study Treatment: Probable,[3]; Moderate (N = 8),0 (0.0%)
same,Number (%) of Subjects Reporting AEs By Most Direct Relationship to Study Treatment: Unlikely,[3]; Moderate (N = 8),1 (12.5%)
same,Number of AEs Reported,[3]; Moderate (N = 8),9
same,Number (%) of Subjects Reporting AEs,[3]; Normal (N = 8),4 (50.0%)
same,Number (%) of Subjects Reporting AEs By Maximum Intensity: Mild,[3]; Normal (N = 8),4 (50.0%)
same,Number (%) of Subjects Reporting AEs By Maximum Intensity: Moderate,[3]; Normal (N = 8),0 (0.0%)
same,Number (%) of Subjects Reporting AEs By Maximum Intensity: Severe,[3]; Normal (N = 8),0 (0.0%)
same,Number (%) of Subjects Reporting AEs By Most Direct Relationship to Study Treatment: Not Related,[3]; Normal (N = 8),0 (0.0%)
same,Number (%) of Subjects Reporting AEs By Most Direct Relationship to Study Treatment: Possible,[3]; Normal (N = 8),1 (12.5%)
same,Number (%) of Subjects Reporting AEs By Most Direct Relationship to Study Treatment: Probable,[3]; Normal (N = 8),1 (12.5%)
same,Number (%) of Subjects Reporting AEs By Most Direct Relationship to Study Treatment: Unlikely,[3]; Normal (N = 8),2 (25.0%)
same,Number of AEs Reported,[3]; Normal (N = 8),4
same,Number (%) of Subjects Reporting AEs,[3]; Severe (N = 8),3 (37.5%)
same,Number (%) of Subjects Reporting AEs By Maximum Intensity: Mild,[3]; Severe (N = 8),3 (37.5%)
same,Number (%) of Subjects Reporting AEs By Maximum Intensity: Moderate,[3]; Severe (N = 8),0 (0.0%)
same,Number (%) of Subjects Reporting AEs By Maximum Intensity: Severe,[3]; Severe (N = 8),0 (0.0%)
same,Number (%) of Subjects Reporting AEs By Most Direct Relationship to Study Treatment: Not Related,[3]; Severe (N = 8),0 (0.0%)
same,Number (%) of Subjects Reporting AEs By Most Direct Relationship to Study Treatment: Possible,[3]; Severe (N = 8),1 (12.5%)
same,Number (%) of Subjects Reporting AEs By Most Direct Relationship to Study Treatment: Probable,[3]; Severe (N = 8),0 (0.0%)
same,Number (%) of Subjects Reporting AEs By Most Direct Relationship to Study Treatment: Unlikely,[3]; Severe (N = 8),2 (25.0%)
same,Number of AEs Reported,[3]; Severe (N = 8),4
same,Relation of incidence of adverse events to severity of renal impairment,"[3]; human, in vivo",not related
same,Events of dyspepsia possibly or probably related,[3]; mild group,1
same,Events of stomach discomfort possibly or probably related,[3]; mild group,1
same,Events of abdominal pain possibly or probably related,[3]; moderate group,1
same,Events of diarrhea possibly or probably related,[3]; moderate group,1
same,Events of worsening renal impairment possibly or probably related,[3]; moderate group,1
